Measurements taken from the NIST ThermoML archive (doi:10.1016/j.fluid.2017.06.019).
Numbers after ± are expanded uncertainties.

Details: Coaxial cylinder method

Molecule `CCC` [propane] has a thermal conductivity (368.46 K, 4312 kPa, Liquid) of 0.0651 ± 0.0042 W/m/K, a thermal conductivity (368.46 K, 4314 kPa, Liquid) of 0.06505 ± 0.0042 W/m/K and a thermal conductivity (368.46 K, 4316 kPa, Liquid) of 0.06503 ± 0.0042 W/m/K. For the same molecule, the thermal conductivity (368.46 K, 4318 kPa, Liquid) was 0.06501 ± 0.0042 W/m/K, the thermal conductivity (368.46 K, 4320 kPa, Liquid) was 0.06499 ± 0.0042 W/m/K and the thermal conductivity (368.46 K, 4322 kPa, Liquid) was 0.06499 ± 0.0042 W/m/K. It also gave a thermal conductivity (368.46 K, 4324 kPa, Liquid) of 0.06497 ± 0.0042 W/m/K, a thermal conductivity (368.46 K, 4326 kPa, Liquid) of 0.06493 ± 0.0042 W/m/K and a thermal conductivity (368.46 K, 4328 kPa, Liquid) of 0.06493 ± 0.0042 W/m/K. The thermal conductivity (368.46 K, 4330 kPa, Liquid) was 0.06489 ± 0.0042 W/m/K, the thermal conductivity (368.46 K, 4332 kPa, Liquid) was 0.06487 ± 0.0042 W/m/K and the thermal conductivity (368.46 K, 4334 kPa, Liquid) was 0.06484 ± 0.0042 W/m/K. It also gave a thermal conductivity (368.46 K, 4336 kPa, Liquid) of 0.06484 ± 0.0042 W/m/K, a thermal conductivity (368.46 K, 4338 kPa, Liquid) of 0.06482 ± 0.0042 W/m/K and a thermal conductivity (368.46 K, 4340 kPa, Liquid) of 0.06482 ± 0.0042 W/m/K. The thermal conductivity (368.46 K, 4345 kPa, Liquid) was 0.06476 ± 0.0042 W/m/K, the thermal conductivity (368.46 K, 4350 kPa, Liquid) was 0.06472 ± 0.0042 W/m/K and the thermal conductivity (368.46 K, 4355 kPa, Liquid) was 0.06468 ± 0.0042 W/m/K. The thermal conductivity (368.46 K, 4360 kPa, Liquid) was 0.06461 ± 0.0042 W/m/K, the thermal conductivity (368.46 K, 4365 kPa, Liquid) was 0.06458 ± 0.0042 W/m/K and the thermal conductivity (368.46 K, 4368 kPa, Liquid) was 0.06458 ± 0.0042 W/m/K. For the same molecule, the thermal conductivity (368.46 K, 4375 kPa, Liquid) was 0.06454 ± 0.0042 W/m/K, the thermal conductivity (368.46 K, 4380 kPa, Liquid) was 0.0645 ± 0.0042 W/m/K and the thermal conductivity (368.46 K, 4385 kPa, Liquid) was 0.06446 ± 0.0042 W/m/K. It also gave a thermal conductivity (368.46 K, 4390 kPa, Liquid) of 0.06443 ± 0.0042 W/m/K, a thermal conductivity (368.46 K, 4400 kPa, Liquid) of 0.06439 ± 0.0042 W/m/K and a thermal conductivity (368.46 K, 4450 kPa, Liquid) of 0.06421 ± 0.0042 W/m/K. The thermal conductivity (368.46 K, 4500 kPa, Liquid) was 0.06413 ± 0.0042 W/m/K, the thermal conductivity (368.46 K, 4550 kPa, Liquid) was 0.06411 ± 0.0042 W/m/K and the thermal conductivity (368.46 K, 4600 kPa, Liquid) was 0.06411 ± 0.0042 W/m/K. It also gave a thermal conductivity (368.46 K, 4650 kPa, Liquid) of 0.06421 ± 0.0042 W/m/K, a thermal conductivity (368.46 K, 4700 kPa, Liquid) of 0.06427 ± 0.0042 W/m/K and a thermal conductivity (368.46 K, 4750 kPa, Liquid) of 0.06439 ± 0.0042 W/m/K. It also gave a thermal conductivity (368.46 K, 4800 kPa, Liquid) of 0.06451 ± 0.0042 W/m/K, a thermal conductivity (368.46 K, 4900 kPa, Liquid) of 0.06477 ± 0.0042 W/m/K and a thermal conductivity (368.46 K, 4960 kPa, Liquid) of 0.06496 ± 0.0042 W/m/K. The thermal conductivity (368.46 K, 4965 kPa, Liquid) was 0.065 ± 0.0042 W/m/K, the thermal conductivity (368.46 K, 4967 kPa, Liquid) was 0.065 ± 0.0042 W/m/K and the thermal conductivity (368.46 K, 5000 kPa, Liquid) was 0.06509 ± 0.0042 W/m/K. It also gave a thermal conductivity (368.46 K, 5100 kPa, Liquid) of 0.06542 ± 0.0043 W/m/K, a thermal conductivity (368.46 K, 5200 kPa, Liquid) of 0.06573 ± 0.0043 W/m/K and a thermal conductivity (368.46 K, 5300 kPa, Liquid) of 0.06605 ± 0.0043 W/m/K. The thermal conductivity (368.46 K, 5400 kPa, Liquid) was 0.06646 ± 0.0043 W/m/K, the thermal conductivity (368.46 K, 5500 kPa, Liquid) was 0.06674 ± 0.0043 W/m/K and the thermal conductivity (368.46 K, 5600 kPa, Liquid) was 0.06707 ± 0.0043 W/m/K. It also gave a thermal conductivity (368.46 K, 5700 kPa, Liquid) of 0.06732 ± 0.0044 W/m/K, a thermal conductivity (368.46 K, 5800 kPa, Liquid) of 0.06767 ± 0.0044 W/m/K and a thermal conductivity (368.46 K, 5900 kPa, Liquid) of 0.06794 ± 0.0044 W/m/K. It also gave a thermal conductivity (368.46 K, 6010 kPa, Liquid) of 0.06831 ± 0.0044 W/m/K, a thermal conductivity (368.46 K, 6020 kPa, Liquid) of 0.06831 ± 0.0044 W/m/K and a thermal conductivity (368.46 K, 6200 kPa, Liquid) of 0.06884 ± 0.0045 W/m/K. The thermal conductivity (368.46 K, 6210 kPa, Liquid) was 0.06886 ± 0.0045 W/m/K, the thermal conductivity (369.12 K, 3948 kPa, Gas) was 0.04135 ± 0.0026 W/m/K and the thermal conductivity (369.12 K, 3960 kPa, Gas) was 0.0417 ± 0.0026 W/m/K. The thermal conductivity (369.12 K, 4020 kPa, Gas) was 0.04343 ± 0.0027 W/m/K, the thermal conductivity (369.12 K, 4040 kPa, Gas) was 0.04417 ± 0.0028 W/m/K and the thermal conductivity (369.12 K, 4115 kPa, Gas) was 0.0486 ± 0.003 W/m/K. For the same molecule, the thermal conductivity (369.12 K, 4120 kPa, Gas) was 0.04907 ± 0.0031 W/m/K, the thermal conductivity (369.12 K, 4125 kPa, Gas) was 0.04956 ± 0.0031 W/m/K and the thermal conductivity (369.12 K, 4130 kPa, Gas) was 0.05011 ± 0.0031 W/m/K. For the same molecule, the thermal conductivity (369.12 K, 4135 kPa, Gas) was 0.05071 ± 0.0032 W/m/K, the thermal conductivity (369.12 K, 4140 kPa, Gas) was 0.05135 ± 0.0032 W/m/K and the thermal conductivity (369.12 K, 4145 kPa, Gas) was 0.05207 ± 0.0033 W/m/K. For the same molecule, the thermal conductivity (369.12 K, 4150 kPa, Gas) was 0.0529 ± 0.0033 W/m/K, the thermal conductivity (369.12 K, 4154 kPa, Gas) was 0.05366 ± 0.022 W/m/K and the thermal conductivity (369.12 K, 4156 kPa, Gas) was 0.05402 ± 0.0034 W/m/K. For the same molecule, the thermal conductivity (369.12 K, 4158 kPa, Gas) was 0.05445 ± 0.018 W/m/K, the thermal conductivity (369.12 K, 4160 kPa, Gas) was 0.05488 ± 0.017 W/m/K and the thermal conductivity (369.12 K, 4162 kPa, Gas) was 0.0554 ± 0.015 W/m/K. For the same molecule, the thermal conductivity (369.12 K, 4164 kPa, Gas) was 0.05743 ± 0.014 W/m/K, the thermal conductivity (369.12 K, 4166 kPa, Gas) was 0.06032 ± 0.013 W/m/K and the thermal conductivity (369.12 K, 4168 kPa, Gas) was 0.0639 ± 0.012 W/m/K. The thermal conductivity (369.12 K, 4170 kPa, Gas) was 0.06861 ± 0.0057 W/m/K, the thermal conductivity (369.12 K, 4172 kPa, Gas) was 0.07431 ± 0.0084 W/m/K and the thermal conductivity (369.12 K, 4180 kPa, Gas) was 0.113 ± 0.012 W/m/K. The thermal conductivity (369.12 K, 4182 kPa, Gas) was 0.127 ± 0.015 W/m/K, the thermal conductivity (369.12 K, 4184 kPa, Gas) was 0.1426 ± 0.0095 W/m/K and the thermal conductivity (369.12 K, 4186 kPa, Gas) was 0.1588 ± 0.01 W/m/K. For the same molecule, the thermal conductivity (369.12 K, 4188 kPa, Gas) was 0.179 ± 0.011 W/m/K, the thermal conductivity (369.12 K, 4190 kPa, Gas) was 0.1956 ± 0.02 W/m/K and the thermal conductivity (369.12 K, 4192 kPa, Gas) was 0.2155 ± 0.02 W/m/K. For the same molecule, the thermal conductivity (369.12 K, 4194 kPa, Liquid) was 0.2155 ± 0.017 W/m/K, the thermal conductivity (369.12 K, 4196 kPa, Liquid) was 0.1917 ± 0.015 W/m/K and the thermal conductivity (369.12 K, 4198 kPa, Liquid) was 0.1741 ± 0.013 W/m/K. The thermal conductivity (369.12 K, 4200 kPa, Liquid) was 0.1606 ± 0.012 W/m/K, the thermal conductivity (369.12 K, 4202 kPa, Liquid) was 0.1497 ± 0.011 W/m/K and the thermal conductivity (369.12 K, 4204 kPa, Liquid) was 0.1407 ± 0.01 W/m/K. The thermal conductivity (369.12 K, 4206 kPa, Liquid) was 0.1335 ± 0.011 W/m/K, the thermal conductivity (369.12 K, 4208 kPa, Liquid) was 0.1259 ± 0.011 W/m/K and the thermal conductivity (369.12 K, 4210 kPa, Liquid) was 0.1185 ± 0.01 W/m/K. It also gave a thermal conductivity (369.12 K, 4212 kPa, Liquid) of 0.1121 ± 0.0097 W/m/K, a thermal conductivity (369.12 K, 4213 kPa, Liquid) of 0.1093 ± 0.009 W/m/K and a thermal conductivity (369.12 K, 4215 kPa, Liquid) of 0.1035 ± 0.0087 W/m/K. It also gave a thermal conductivity (369.12 K, 4228 kPa, Liquid) of 0.08399 ± 0.0073 W/m/K, a thermal conductivity (369.12 K, 4230 kPa, Liquid) of 0.08176 ± 0.0072 W/m/K and a thermal conductivity (369.12 K, 4232 kPa, Liquid) of 0.07987 ± 0.0066 W/m/K. For the same molecule, the thermal conductivity (369.12 K, 4234 kPa, Liquid) was 0.07806 ± 0.0061 W/m/K, the thermal conductivity (369.12 K, 4236 kPa, Liquid) was 0.07633 ± 0.0057 W/m/K and the thermal conductivity (369.12 K, 4238 kPa, Liquid) was 0.07491 ± 0.0055 W/m/K. For the same molecule, the thermal conductivity (369.12 K, 4240 kPa, Liquid) was 0.07344 ± 0.0053 W/m/K, the thermal conductivity (369.12 K, 4260 kPa, Liquid) was 0.06913 ± 0.0045 W/m/K and the thermal conductivity (369.12 K, 4280 kPa, Liquid) was 0.06803 ± 0.0044 W/m/K. The thermal conductivity (369.12 K, 4300 kPa, Liquid) was 0.06726 ± 0.0044 W/m/K, the thermal conductivity (369.12 K, 4320 kPa, Liquid) was 0.06665 ± 0.0043 W/m/K and the thermal conductivity (369.12 K, 4340 kPa, Liquid) was 0.06616 ± 0.0043 W/m/K. The thermal conductivity (369.12 K, 4380 kPa, Liquid) was 0.06546 ± 0.0043 W/m/K, the thermal conductivity (369.12 K, 4400 kPa, Liquid) was 0.06519 ± 0.0042 W/m/K and the thermal conductivity (369.12 K, 8500 kPa, Liquid) was 0.0737 ± 0.0048 W/m/K. For the same molecule, the thermal conductivity (369.12 K, 9020 kPa, Liquid) was 0.07453 ± 0.0048 W/m/K, the thermal conductivity (369.12 K, 10028 kPa, Liquid) was 0.07577 ± 0.0049 W/m/K and the thermal conductivity (369.12 K, 14772 kPa, Liquid) was 0.08097 ± 0.0052 W/m/K.
